According to patent US5283180A, “Bioluminescence method for the determination of pesticides” (priority 1992, dated 1994):
Read-outs that look alike come from different tables or passages of the source.

Columns and labels:
[1] = tested on: Bee Brain Activity for Ac-luciferin (esterase activity of bee brain extract); type: biochemical, honey bees; details: for % activity: bee brain extract; for I50 (concentration of inhibitor which gives a 50% decrease in enzymatic activity as measured by bioluminescence): bee brain, Ac-luciferin substrate, 5 min
Experimental: (§1) 1. Sample is preincubated with a predetermined quantity (dilution 1:200) of brain preparation for 5 minutes.
(§2) 2. Luciferin acetate (200 pmoles) is added to the incubation mixture for additional 5 minutes.
(§3) 3. A portion of this […] mixture (100 μl) is withdrawn and added to the luciferase and ATP reaction mixture (1 ml).
(§4) 4. Bioluminescence reading for 2-5 seconds is monitored.
(§5) 5. The reading of the pesticide sample is compared to the control sample to quantitate the percent inhibition of the sample (see Tables 3, 4, 5 and 6) .
(§6) Insects are stored from at -20° C. or below. Insect heads are collected by dissection with a scalpel and placed in a 50 ml beaker containing approximately 15 ml ice cold 0.07M phosphate buffer, pH 7.0, containing 1 mM EDTA (ethylenediaminetetra acetic acid) and 1 μM phenylthiourea. The insect heads are gently homogenized at low speed in a Tekmar Tissumizer. Aliquots of this crude extract are transferred to microcentrifuge tubes and centrifuged. The supernatant is retained and applied to a sephadex G-25 column equilibrated with 0.07M phosphate buffer, pH 7.0, containing 1 mM EDTA and 1 μM phenylthiourea. Fractions are collected every 2 minutes and monitored for esterase activity using luciferin acetate as a substrate and measuring bioluminescence. Fractions with esterase activity are pooled and used as the insect head extract for use in the pesticide assay.
(§7) Notes: Brain extracts have been prepared primarily from honey bees, but also has been extracted from silkworm and blowflies. Protein concentration of the bee head extract is between 2 to 5 mg/ml. For the assay, 5 to 10 μl is used per assay.
(§8) 1. To 13×100 mm test tubes add 2 ml 0.07M phosphate buffer, pH 7.0. Add 25 μl positive pesticide control (organophosphate and/or carbamate pesticide), 25 μl water to negative control tube and 25 μl of test sample to another tube. If test sample contains solvent other than water, then use this solvent as the negative control tube.
(§9) 2. Add insert brain extract (5 or 10 μl depending on activity) to the 2 ml incubation mixture in step 1, vortex and incubate at 35° C. in temperature block for 10 minutes. Use timer with alarm to monitor time.
(§10) 3. At 10 minutes, add 25 μl 8.25 μM luciferin acetate solution to 2 ml incubation mixture in step 2. Reset timer to zero and restart timer.
(§11) 4. At 5 minutes, take 100 μl portion from each sample. Use separate pipette tip for each sample and add the 100 μl portion to separate 13×100 mm test tubes containing 1 ml of bioluminescence buffer.
(§12) 5. Add 30 μl ATP solution followed by 30 μl luciferase solution to one of the assay tubes in step 4. Vortex and measure bioluminescence for 2 to 5 seconds. Record value and proceed to the next tubes as above.
6. […] In the positive samples the esterolitic activity of the bee extract will be inhibited and less luciferin will form giving a low bioluminescent reading. Divide sample reading or positive control by zero control and multiply to 100 to get percent inhibition.

[2] = tested on: Silkworm Brain Activities; test: Bioluminescence pesticide assay: inhibition of silkworm brain activities; type: biochemical; details: pesticide at 25 PPB
Experimental: as §1, §2, §3, §4, §5, §6, §7, §8, §9, §10, §11, §12
6. Zero control bioluminescence reaction will be uninhibited by pesticide and will have a high bioluminescence reading. In the positive samples the esterolitic activity of the bee extract will be inhibited and less luciferin will form giving a low bioluminescent reading. Divide sample reading or positive control by zero control and multiply to 100 to get percent inhibition.

Structure (SMILES)	% activity ([1]; 25 ppb pesticide) [%]	I50 (concentration of inhibitor which gives a 50% decrease in enzymatic activity as measured by bioluminescence) [1] [ppb]	% Inhibition [2] [%]	% activity ([1]; 0.625 ppb pesticide) [%]	% activity ([1]; 1.25 ppb pesticide) [%]	% activity ([1]; 2.5 ppb pesticide) [%]	% activity ([1]; 6.25 ppb pesticide) [%]	% activity ([1]; 12.5 ppb pesticide) [%]	% activity ([1]; 3.125 ppb pesticide) [%]	other results
CCOP(=S)(OCC)Oc1cc(C)nc(C(C)C)n1 [Diazinon]	40	15	0	–	–	–	–	–	–	% activity ([1]; 100 ppb pesticide): 28%
COP(=S)(OC)Oc1ccc([N+](=O)[O-])cc1 [Methyl parathion]	–	1	0	62	40	23	–	–	–	–
CNC(=O)Oc1cccc2c1OC(C)(C)C2 [Carbofuran]	32	8	–	–	–	–	59	41	–	% activity ([1]; 50 ppb pesticide): 22%
CCOP(=S)(OCC)Oc1nc(Cl)c(Cl)cc1Cl [Chlorpyrifos]	–	1	–	68	34	24	10	–	13	–
CCOC(=O)CC(SP(=S)(OC)OC)C(=O)OCC (stereo not shown) [Malathion]	27	6	–	–	–	–	53	50	–	% activity ([1]; 50 ppb pesticide): 27%
CCOP(=S)(OCC)SCSCC [Phorate]	–	2	50.5	–	70	29	8	3	23	–
CNC(=O)Oc1cccc2c1OC(C)(C)O2 [Bendocarb]	26	12	–	–	–	–	–	50	–	% activity ([1]; 50 ppb pesticide): 18%; % activity ([1]; 100 ppb pesticide): 11%
CCOP(=S)(OCC)SCSP(=S)(OCC)OCC [Ethion]	–	2	77.0	71	65	37	–	–	–	% activity ([1]; 0.3125 ppb pesticide): 84%
COP(=O)(OC)OC(Br)C(Cl)(Cl)Br (stereo not shown) [Naled]	–	0.05	98.0	29	–	–	–	–	–	% activity ([1]; 0.031 ppb pesticide): 50%; % activity ([1]; 0.125 ppb pesticide): 30%; % activity ([1]; 0.250 ppb pesticide): 25%
CC[S+]([O-])CCSP(=O)(OC)OC (stereo not shown) [Oxydemeton-methyl]	21	1	0	43	47	37	–	–	–	% activity ([1]; 0.3125 ppb pesticide): 90%
CNC(=O)ON=C(C)SC [Methomyl]	12	4	–	–	–	–	16	20	45	–
CCOP(=S)(OCC)SCCSCC [Disulfoton]	19	5	25	–	–	–	47	35	66	–
COP(=O)(OC)OC=C(Cl)Cl [DDVP]	–	0.004	100.0	–	–	–	–	–	–	% activity ([1]; 0.0013 ppb pesticide): 74%; % activity ([1]; 0.0023 ppb pesticide): 49%; % activity ([1]; 0.0028 ppb pesticide): 60%; % activity ([1]; 0.0057 ppb pesticide): 52%; % activity ([1]; 0.011 ppb pesticide): 25%
COC(=O)C=C(C)OP(=O)(OC)OC [Mevinphos]	–	2	50	52	48	24	9	–	12	% activity ([1]; 0.3125 ppb pesticide): 64%
CNC(=O)Oc1ccccc1OC(C)C [Propoxur]	44	10	–	–	–	–	–	43	–	% activity ([1]; 3.1 ppb pesticide): 62%; % activity ([1]; 62.5 ppb pesticide): 29%; % activity ([1]; 125.0 ppb pesticide): 27%
